According to patent publication US5099063A, “Certain phosphinic acid derivatives having antibacterial activity” (Merck & Co., Inc., priority 1990, dated 1992):
pIC50, pKi: −log10 of the molar value.

How the values were obtained:
[1] = molecular target: T1, D-Alanyl-D-Alanine ligase (Enterococcus hirae, UniProt Q47827); test: D-Alanyl-D-Alanine ligase in vitro inhibition; format: biochemical; conditions: inhibitor pre-incubated with enzyme 40 minutes at room temperature, then 37° C. for 30 minutes; 0.005M (14C-1)-D-alanine; read-out: D-AlaAla Ligase Inhibition IC50
T1 sequence (Q47827 1-358): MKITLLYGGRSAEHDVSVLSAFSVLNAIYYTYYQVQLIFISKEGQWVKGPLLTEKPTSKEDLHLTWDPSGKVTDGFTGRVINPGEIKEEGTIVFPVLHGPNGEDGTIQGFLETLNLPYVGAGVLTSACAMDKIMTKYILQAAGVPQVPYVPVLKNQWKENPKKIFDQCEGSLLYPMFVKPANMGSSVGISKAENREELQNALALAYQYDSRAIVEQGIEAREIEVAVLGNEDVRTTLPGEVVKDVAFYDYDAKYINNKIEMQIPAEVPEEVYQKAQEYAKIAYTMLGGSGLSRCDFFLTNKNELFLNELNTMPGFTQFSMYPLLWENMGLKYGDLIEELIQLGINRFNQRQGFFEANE
Experimental: The ligase enzyme inhibitory activity of compounds of Formula I have been evaluated in vitro with only minor modifications of the procedures of F. C. Neuhaus (Biochemistry 3, 471-480 (1964) and references cited therein) using D-cycloserine as a control and standard ligase inhibitor. The procedure is as follows:
Streptococcus faecalis (ATCC 8043) was grown as described by Neuhaus (J. Biol. Chem., 237:778, 1962). Cell-free extracts were prepared by sonication followed by centrifugation at 27,000×g for 30 minutes. Protein was precipitated with 55% ammonium sulfate. The precipitate was dissolved in 0.05M Tris-Cl buffer (PH 7.0), dialyzed against 0.0025M glutathione and stored in liquid nitrogen. No loss of activity was observed after 1 year.
The assay mixture contained 0.05M Tris-Cl buffer (pH 7.9), 0.01M KCl, 0.008M MgCl2, 0.005M ATP, 0.005M (14C-1)-D-alanine and 5 μof enzyme (specific activity=0.38 units/mg protein). Assay volume was 0.1 ml.
Inhibitors were pre-incubated with enzyme, MgCl2, KCl and buffer, for 40 minutes at room temperature, before addition of ATP and substrate. Samples were subsequently incubated at 37° C. for 30 minutes.
Twenty μl of each sample was applied to the preabsorbent layer of high resolution, pre-channeled silica-gel TLC plates to stop the reaction. Plates were developed in ethanol:ammonium hydroxide: H2 O (11:1:8) for 2-3 hours and the radioactive zones located and integrated with a Berthold Linear Analyzer. […] IC50 's were determined for active compounds (70% inhibition).

[2] = molecular target: T2, dehydropeptidase-I (renal dipeptidase, EC 3.4.13.11) (Sus scrofa, UniProt P22412); test: Renal dehydropeptidase I inhibition (hydrolysis of glycyldehydrophenylalanine); format: biochemical; conditions: hog kidney dipeptidase, GDP 0.05 mM, MOPS pH 7.1, 37° C.; Ki stated as concentration which achieves 50% inhibition
T2 construct: a solubilized preparation of dipeptidase isolated from hog kidneys; from tissue; host or cells: hog kidney
T2 sequence (P22412 17-409): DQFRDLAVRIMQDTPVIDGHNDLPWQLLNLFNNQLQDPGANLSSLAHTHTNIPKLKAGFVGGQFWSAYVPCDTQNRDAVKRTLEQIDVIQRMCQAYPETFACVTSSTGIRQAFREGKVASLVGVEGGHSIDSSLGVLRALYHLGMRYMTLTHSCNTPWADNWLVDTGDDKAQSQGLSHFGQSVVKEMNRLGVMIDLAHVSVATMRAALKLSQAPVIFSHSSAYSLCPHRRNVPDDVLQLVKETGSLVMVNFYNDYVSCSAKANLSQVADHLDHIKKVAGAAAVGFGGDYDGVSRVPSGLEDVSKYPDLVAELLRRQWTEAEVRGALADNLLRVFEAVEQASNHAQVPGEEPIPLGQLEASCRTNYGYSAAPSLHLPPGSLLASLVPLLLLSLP
Experimental: This measured the ability of compounds to inhibit hydrolysis of glycyldehydrophenylalanine (GDP) by a solubilized preparation of dipeptidase isolated from hog kidneys. The procedure is as follows: to a 1 ml system containing 50 mM "MOPS" (3-(N-morpholino)propanesulfonic acid) buffer, pH 7.1, is added 5 μg of lyophilized enzyme, and the test compound at a final concentration of 0.1 mM. After a five minute incubation at 37° C., GDP is added to a final concentration of 0.05 mM. […] Inhibition of the enzyme is gauged by comparison to a standard run containing no inhibitor and is expressed as the inhibitor binding constant, Ki.

Row | Structure (SMILES) | pIC50 [1] | pKi [2]
1 | CC(N)P(=O)(O)C/C(=C/Cc1ccccc1)C(=O)O (racemic) [DL; R5=benzyl (E isomers)] | 3.68 | –
2 | CCCCCCCC(CP(=O)(O)[C@@H](C)N)C(=O)O (stereo partly drawn) [D; R2=n-heptyl; R3=H, 1-D-Aminoethyl-[2-carboxy-1-nonyl]-phosphinic acid] | 5.40 | –
3 | C=C(CP(=O)(O)[C@@H](C)N)C(=O)O [D; R5=H] | 3.68 | –
4 | COC(=O)C(C)CP(=O)(O)C(C)N (stereo not drawn) [DL; R2=methyl; R3=methyl, 1-Aminoethyl-(2-carbomethoxy-1-propyl)phosphinic acid] | 4.22 | –
5 | CCC(CP(=O)(O)[C@@H](C)N)C(=O)O (stereo partly drawn) [D; R2=ethyl; R3=H, 1-D-Aminoethyl-(2l-carboxy-1-n-butyl)phosphinic acid] | 4.35 | –
6 | CC(N)P(=O)(O)CC(CCCc1ccccc1)C(=O)O (stereo not drawn) [DL; R2=phenylpropyl; R3=H, 1-Aminoethyl-[2-carboxy-5-phenyl-1-n-pentyl]-phosphinic acid] | 4.70 | –
8 | CCCCCC=C(CP(=O)(O)C(C)N)C(=O)O (racemic) [DL; R5=n-pentyl, (E,Z isomers), 1-Aminoethyl-(2-carboxy-oct-2-enyl)phosphinic acid (E/Z mixture)] | 3.15 | –
9 | CCCCC(CP(=O)(O)C(C)N)C(=O)O (racemic) [DL; R2=n-butyl] | – | 8.40
